Assay results reported in patent US20260027125A1, “AN ANTIBACTERIAL PARENTERAL FORMULATION AND METHODS THEREOF” (BUGWORKS RESEARCH INDIA PVT. LTD., priority 2022, published 2026).
Counter-ions that a name gives are not always drawn.

What was measured:
[1] = tested on: Bacteroides fragilis (anaerobe); assay: microbe, parasite or virus in culture; type: cell-based
Bacillus anthracis = assay: microbe, parasite or virus in culture; type: cell-based
[2] = tested on: Mycoplasma species (atypical); assay: microbe, parasite or virus in culture; type: cell-based
Francisella tularensis = assay: microbe, parasite or virus in culture; type: cell-based
Helicobacter pylori = assay: microbe, parasite or virus in culture
Streptococcus pyogenes = assay: microbe, parasite or virus in culture; type: cell-based
Providencia spp. = assay: microbe, parasite or virus in culture; type: cell-based
[3] = tested on: Stenotrophomonas maltophilia; assay: microbe, parasite or virus in culture; type: cell-based
Shigella sp. = assay: microbe, parasite or virus in culture; type: cell-based
Neisseria gonorrhoea [4] = assay: microbe, parasite or virus in culture
Morganella morgannii = assay: microbe, parasite or virus in culture; type: cell-based
Neisseria gonorrhoea [5] = tested on: Neisseria gonorrhoea
Staphylococcus aureus = assay: microbe, parasite or virus in culture; type: cell-based
Achromobacter spp. = assay: microbe, parasite or virus in culture; type: cell-based
Streptococcus pneumoniae = assay: microbe, parasite or virus in culture; type: cell-based
Citrobacter freundii = assay: microbe, parasite or virus in culture; type: cell-based
Klebsiella pneumoniae = assay: microbe, parasite or virus in culture; type: cell-based
[6] = tested on: Fusobacterium spp. (anaerobe); assay: microbe, parasite or virus in culture; type: cell-based
A. baumannii ATCC 17978 = assay: Neutropenic murine model of thigh infection; type: in vivo, Acinetobacter baumannii; conditions: neutropenic mice
Enterococcus faecium = assay: microbe, parasite or virus in culture; type: cell-based

For `Cn1c(=O)ccc2ccc(F)c(CCNC[C@H]3CN(c4cnc5c(n4)NC(=O)CO5)C(=O)O3)c21` [compound of Formula (I) formate salt, (S)-6-(5-(((2-(7-fluoro-1-methyl-2-oxo-1,2-dihydroquinolin-8-yl)ethyl)amino)methyl)-2-oxooxazolidin-3-yl)-2H-pyrazino[2,3-b][1,4]oxazin-3(4H)-one formate], the “MIC Range, high end” value [1] was 8 µg/mL, the “MIC Range, low end” value [1] was ≤0.015 µg/mL and the MIC50 ([1]; Bacteroides fragilis) was 0.06 µg/mL. For the same compound, the MIC90 ([1]; Bacteroides fragilis) was 0.25 µg/mL, the MIC50 (Bacillus anthracis) was ≤ 0.015 µg/mL and the MIC90 (Bacillus anthracis) was ≤ 0.015 µg/mL. The “MIC Range, high end” value (Bacillus anthracis; N 42 strains) was ≤0.015 µg/mL, the “MIC Range, low end” value (Bacillus anthracis; N 42 strains) was ≤0.015 µg/mL and the “MIC Range, high end” value [2] was ≤0.015 µg/mL. For the same compound, the “MIC Range, low end” value [2] was ≤0.015 µg/mL, the MIC50 ([2]; Mycoplasma leachii) was ≤ 0.015 µg/mL and the MIC90 ([2]; Mycoplasma leachii) was ≤ 0.015 µg/mL. The MIC50 (Francisella tularensis) was ≤ 0.015 µg/mL, the MIC90 (Francisella tularensis) was ≤ 0.015 µg/mL and the “MIC Range, high end” value (Francisella tularensis; N 36 strains) was ≤0.015 µg/mL. The “MIC Range, low end” value (Francisella tularensis; N 36 strains) was ≤0.015 µg/mL, the MIC50 (Helicobacter pylori) was ≤ 0.015 µg/mL and the MIC90 (Helicobacter pylori) was ≤ 0.015 µg/mL. The “MIC Range, high end” value (Streptococcus pyogenes) was 0.06 µg/mL, the “MIC Range, low end” value (Streptococcus pyogenes) was 0.03 µg/mL and the MIC50 (Streptococcus pyogenes; Streptococcus pyogenes) was 0.03 µg/mL. For the same compound, the MIC90 (Streptococcus pyogenes; Streptococcus pyogenes) was 0.03 µg/mL, the “MIC Range, high end” value (Providencia spp.) was 32 µg/mL and the “MIC Range, low end” value (Providencia spp.) was 0.06 µg/mL. For the same compound, the MIC50 (Providencia spp.; Providencia) was 0.5 µg/mL, the MIC90 (Providencia spp.; Providencia) was 2 µg/mL and the “MIC Range, high end” value [3] was 2 µg/mL. For the same compound, the “MIC Range, low end” value [3] was 0.03 µg/mL, the MIC50 ([3]; Stenotrophomonas maltophilia) was 0.06 µg/mL and the MIC90 ([3]; Stenotrophomonas maltophilia) was 0.25 µg/mL. The “MIC Range, high end” value (Shigella sp.) was 0.25 µg/mL, the “MIC Range, low end” value (Shigella sp.) was ≤0.015 µg/mL and the MIC50 (Shigella sp.; Shigella) was 0.03 µg/mL. For the same compound, the MIC90 (Shigella sp.; Shigella) was 0.06 µg/mL, the MIC50 (Neisseria gonorrhoea [4]) was ≤ 0.015 µg/mL and the MIC90 (Neisseria gonorrhoea [4]) was ≤ 0.015 µg/mL. For the same compound, the “MIC Range, high end” value (Morganella morgannii) was 8 µg/mL, the “MIC Range, low end” value (Morganella morgannii) was ≤0.015 µg/mL and the MIC50 (Morganella morgannii; Morganella) was 0.12 µg/mL. For the same compound, the MIC90 (Morganella morgannii; Morganella) was 0.5 µg/mL, the “MIC Range, high end” value (Neisseria gonorrhoea [5]) was ≤0.015 µg/mL and the “MIC Range, low end” value (Neisseria gonorrhoea [5]) was ≤0.015 µg/mL. For the same compound, the “MIC Range, high end” value (Staphylococcus aureus) was 0.5 µg/mL, the “MIC Range, low end” value (Staphylococcus aureus) was <0.015 µg/mL and the MIC50 (Staphylococcus aureus; Staphylococcus aureus) was 0.03 µg/mL. The MIC90 (Staphylococcus aureus; Staphylococcus aureus) was 0.03 µg/mL, the “MIC Range, high end” value (Achromobacter spp.) was 0.5 µg/mL and the “MIC Range, low end” value (Achromobacter spp.) was ≤0.015 µg/mL. For the same compound, the MIC50 (Achromobacter spp.; Achromobacter) was 0.06 µg/mL, the MIC90 (Achromobacter spp.; Achromobacter) was 0.12 µg/mL and the “MIC Range, high end” value (Streptococcus pneumoniae) was 0.06 µg/mL. The “MIC Range, low end” value (Streptococcus pneumoniae) was 0.03 µg/mL, the MIC50 (Streptococcus pneumoniae; Streptococcus pneumoniae) was 0.03 µg/mL and the MIC90 (Streptococcus pneumoniae; Streptococcus pneumoniae) was 0.03 µg/mL. The “MIC Range, high end” value (Citrobacter freundii) was 8 µg/mL, the “MIC Range, low end” value (Citrobacter freundii) was 0.03 µg/mL and the MIC50 (Citrobacter freundii; Citrobacter freundii) was 0.25 µg/mL. For the same compound, the MIC90 (Citrobacter freundii; Citrobacter freundii) was 1 µg/mL, the “MIC Range, high end” value (Klebsiella pneumoniae) was 32 µg/mL and the “MIC Range, low end” value (Klebsiella pneumoniae) was 0.03 µg/mL. For the same compound, the MIC50 (Klebsiella pneumoniae; Klebsiella pneumoniae) was 0.5 µg/mL, the MIC90 (Klebsiella pneumoniae; Klebsiella pneumoniae) was 2 µg/mL and the “MIC Range, high end” value [6] was 0.5 µg/mL. The “MIC Range, low end” value [6] was ≤0.015 µg/mL, the MIC50 ([6]; Fusobacterium) was ≤ 0.015 µg/mL and the MIC90 ([6]; Fusobacterium) was ≤ 0.015 µg/mL. For the same compound, the “effect on bacterial burden in thigh” value (A. baumannii ATCC 17978; SC 10 mg/kg q8h, 26 hours) was “effective at reducing”, the “effect on bacterial burden in thigh” value (A. baumannii ATCC 17978; SC 30 mg/kg q8h, 26 hours) was “effective at reducing” and the “effect on bacterial burden in thigh” value (A. baumannii ATCC 17978; SC 60 mg/kg q8h, 26 hours) was “either a bacteriostatic or killing effect”. The “effect on bacterial burden in thigh” value (A. baumannii ATCC 17978; SC 90 mg/kg q8h, 26 hours) was “logarithmic killing”, the “effect on bacterial burden in thigh” value (A. baumannii ATCC 17978; SC 120 mg/kg q8h, 26 hours) was “logarithmic killing” and the “efficacy compared with polymyxin B (SC 25 mg/kg q8h)” value (A. baumannii ATCC 17978; doses ≥90 mg/kg q8h SC) was “more effective”. The “efficacy compared with subcutaneous meropenem (200 mg/kg q8h)” value (A. baumannii ATCC 17978; doses ≥90 mg/kg q8h SC) was “more effective”, the “effect on bacterial burden in thigh” value (A. baumannii ATCC 17978; ≥60 mg/kg q8h SC, across three replicate studies) was “logarithmic killing” and the “MIC Range, high end” value (Enterococcus faecium) was 0.5 µg/mL. The “MIC Range, low end” value (Enterococcus faecium) was <0.015 µg/mL, the MIC50 (Enterococcus faecium; Enterococcus faecium) was 0.03 µg/mL and the MIC90 (Enterococcus faecium; Enterococcus faecium) was 0.12 µg/mL.
